# Reference: patent US20250304620A1, “ANTIMICROBIAL PEPTIDE AND APPLICATION THEREOF” (priority 2023, published 2025)
# Marks after values point to notes of the source that are not given here. Non-standard residues stand in square brackets, D forms with d. Residues, ends and D or L forms follow the SMILES beside them. d2Nal = N[C@H](Cc1ccc2ccccc2c1)C(=O)O
# Tests used:
# [1] = test system: Pseudomonas aeruginosa ATCC 27853; experiment: Injectable formulations on mice infected with peritonitis; format: in vivo, ICR mice; settings: twice a day for 3 days; for Number of mice that died on each day after infection: day 1 / Number of mice that died on each day after infection: day 2 / Number of mice that died on each day after infection: day 3 / Number of mice that died on each day after infection: day 4 / Number of mice that died on each day after infection: day 5 / Average survival times (Days): n = 10; for Average survival times (Days): observed for 14 d; for survival time of mice infected with Pseudomonas aeruginosa: tail vein, observed 14 d
# Experimental: Both female and male ICR mice were used in the test, half of the female and male mice were taken and randomly assigned into groups, with 10 mice in each group, and kept in separate cages. The mice were divided into a blank control group, a negative control group, a positive control Levofloxacin group, and AMPs LV-1 to LV-30 groups. A bacterial suspension of Pseudomonas aeruginosa ATCC 27853 was prepared, a concentration of the suspension was adjusted 1×10^9 CFU/mL for subsequent use. Except for the blank control group, all other mice were injected with the bacterial suspension (0.2 mL, 1×10^9 CFU/mL), into abdominal cavity of the mice, to establish a model. After the model was successfully established, the mice were given drug immediately according to their body weights. Except for the blank control group and the negative control group, the mice in all other groups were administered the corresponding injectable formulations via tail vein, twice a day for 3 consecutive days. The mice were then observed for 14 d. The death of mice in each group was observed, and survival time of the mice was recorded. Results of the effect of the injectable formulations of AMPs LV-1 to LV-30 on the survival time of mice infected with Pseudomonas aeruginosa are shown in Table 10.
# [2] = test system: Escherichia coli ATCC 25922; experiment: Oral formulations on mice with systemic bacterial infection; format: in vivo, ICR mice; settings: three times a day for 7 days; for Number of mice that died on each day after infection: day 4 / Number of mice that died on each day after infection: day 5 / Number of mice that died on each day after infection: day 6 / Number of mice that died on each day after infection: day 7 / Number of mice that died on each day after infection: day 8 / Average survival times (Days): n = 10; for Average survival times (Days): observed for 14 d; for survival time of mice infected with Escherichia coli: gavage, observed 14 d
# Experimental: Both female and male ICR mice were used in the test, half of the female and male mice were taken and randomly assigned into groups, with 10 mice in each group, and kept in separate cages. The mice were divided into a blank control group, a negative control group, a positive control Levofloxacin group, and AMPs LV-1 to LV-30 groups. An Escherichia coli ATCC 25922 bacterial suspension was prepared, a concentration of the suspension was adjusted 1×10^7 CFU/mL for subsequent use. Except for the blank control group, all other mice were injected with the Escherichia coli suspension (0.2 mL, 1×10^7 CFU/mL), into abdominal cavity of the mice, to establish a model. After the model was successfully established, the mice were given drug immediately according to their body weights. Except for the blank control group and the negative control group, the mice in all other groups were gavaged with different compounds, three times a day for 7 consecutive days. The mice were then observed for 14 d. The death of mice in each group was observed, and survival time of the mice was recorded. Results of the effect of the oral formulations of AMPs LV-1 to LV-30 on the survival time of mice infected with Escherichia coli are shown in Table 11.
# [3] = test system: rabbit red blood cells; format: cell-based; settings: red cells of rabbit, 1 h
SMILES,Number of mice that died on each day after infection: day 1 ([1]; 0.2 mg/kg via tail vein) [Mouse],Number of mice that died on each day after infection: day 2 ([1]; 0.2 mg/kg via tail vein) [Mouse],Number of mice that died on each day after infection: day 3 ([1]; 0.2 mg/kg via tail vein) [Mouse],Number of mice that died on each day after infection: day 4 ([1]; 0.2 mg/kg via tail vein) [Mouse],Number of mice that died on each day after infection: day 5 ([1]; 0.2 mg/kg via tail vein) [Mouse],Average survival times (Days) ([1]; 0.2 mg/kg via tail vein),Number of mice that died on each day after infection: day 1 ([1]; 1 mg/kg via tail vein) [Mouse],Number of mice that died on each day after infection: day 2 ([1]; 1 mg/kg via tail vein) [Mouse],Number of mice that died on each day after infection: day 3 ([1]; 1 mg/kg via tail vein) [Mouse],Number of mice that died on each day after infection: day 4 ([1]; 1 mg/kg via tail vein) [Mouse],Number of mice that died on each day after infection: day 5 ([1]; 1 mg/kg via tail vein) [Mouse],Average survival times (Days) ([1]; 1 mg/kg via tail vein),Number of mice that died on each day after infection: day 1 ([1]; 5 mg/kg via tail vein) [Mouse],Number of mice that died on each day after infection: day 4 ([2]; 1 mg/kg gavage) [Mouse],Number of mice that died on each day after infection: day 5 ([2]; 1 mg/kg gavage) [Mouse],Number of mice that died on each day after infection: day 6 ([2]; 1 mg/kg gavage) [Mouse],Number of mice that died on each day after infection: day 7 ([2]; 1 mg/kg gavage) [Mouse],Number of mice that died on each day after infection: day 8 ([2]; 1 mg/kg gavage) [Mouse],Average survival times (Days) ([2]; 1 mg/kg gavage),"MHC (minimum hemolytic concentration, lowest concentration causing 10% hemolysis) [3] [µg/mL]",other results
CC(=O)N[C@H](CCCNC(=N)N)C(=O)N[C@H](CCCNC(=N)N)C(=O)N[C@H](CC(C)C)C(=O)N[C@H](CC(C)C)C(=O)N[C@H](Cc1ccc2ccccc2c1)C(=O)N[C@H](CCCNC(=N)N)C(=O)N[C@H](CC(C)C)C(=O)N[C@H](CCCNC(=N)N)C(=O)N[C@H](Cc1ccc2ccccc2c1)C(=O)N[C@H](CCCNC(=N)N)C(=O)N[C@H](CCCNC(=N)N)C(N)=O [LV-1] (Ac-[dR][dR][dL][dL][d2Nal][dR][dL][dR][d2Nal][dR][dR]-NH2),1,2,1,1,1,7.3** Days,0,1,1,1,0,10.7**** Days,2,0,0,1,1,1,11.9**** Days,>1000,Number of mice that died on each day after infection: day 2 ([1]; 5 mg/kg via tail vein): 1 Mouse; Number of mice that died on each day after infection: day 3 ([1]; 5 mg/kg via tail vein): 1 Mouse; Number of mice that died on each day after infection: day 4 ([1]; 5 mg/kg via tail vein): 0 Mouse; Number of mice that died on each day after infection: day 5 ([1]; 5 mg/kg via tail vein): 0 Mouse; Average survival times (Days) ([1]; 5 mg/kg via tail vein): 9.1** Days; survival time of mice infected with Pseudomonas aeruginosa [1]: superior to those of the Levofloxacin group; Number of mice that died on each day after infection: day 4 ([2]; 0.2 mg/kg gavage): 0 Mouse; Number of mice that died on each day after infection: day 5 ([2]; 0.2 mg/kg gavage): 3 Mouse; Number of mice that died on each day after infection: day 6 ([2]; 0.2 mg/kg gavage): 1 Mouse; Number of mice that died on each day after infection: day 7 ([2]; 0.2 mg/kg gavage): 0 Mouse; Number of mice that died on each day after infection: day 8 ([2]; 0.2 mg/kg gavage): 1 Mouse; Average survival times (Days) ([2]; 0.2 mg/kg gavage): 9.9** Days; Number of mice that died on each day after infection: day 4 ([2]; 5 mg/kg gavage): 0 Mouse; Number of mice that died on each day after infection: day 5 ([2]; 5 mg/kg gavage): 0 Mouse; Number of mice that died on each day after infection: day 6 ([2]; 5 mg/kg gavage): 2 Mouse; Number of mice that died on each day after infection: day 7 ([2]; 5 mg/kg gavage): 1 Mouse; Number of mice that died on each day after infection: day 8 ([2]; 5 mg/kg gavage): 0 Mouse; Average survival times (Days) ([2]; 5 mg/kg gavage): 11.7**** Days; survival time of mice infected with Escherichia coli [2]: superior to those of the Levofloxacin group
CC(=O)N[C@H](CCCNC(=N)N)C(=O)N[C@H](CCCCN)C(=O)N[C@H](CC(C)C)C(=O)N[C@H](CC(C)C)C(=O)N[C@H](Cc1ccccc1)C(=O)N[C@H](CCCNC(=N)N)C(=O)N[C@H](CC(C)C)C(=O)N[C@H](CCCCN)C(=O)N[C@H](Cc1ccccc1)C(=O)N[C@H](CCCNC(=N)N)C(=O)N[C@H](CCCCN)C(N)=O [LV-2] (Ac-[dR][dK][dL][dL][dF][dR][dL][dK][dF][dR][dK]-NH2),3,1,1,0,0,7.8** Days,0,0,1,0,1,12.0**** Days,1,0,2,1,0,0,11.4**** Days,>1000,Number of mice that died on each day after infection: day 2 ([1]; 5 mg/kg via tail vein): 0 Mouse; Number of mice that died on each day after infection: day 3 ([1]; 5 mg/kg via tail vein): 1 Mouse; Number of mice that died on each day after infection: day 4 ([1]; 5 mg/kg via tail vein): 0 Mouse; Number of mice that died on each day after infection: day 5 ([1]; 5 mg/kg via tail vein): 0 Mouse; Average survival times (Days) ([1]; 5 mg/kg via tail vein): 11.6**** Days; survival time of mice infected with Pseudomonas aeruginosa [1]: superior to those of the Levofloxacin group; Number of mice that died on each day after infection: day 4 ([2]; 0.2 mg/kg gavage): 1 Mouse; Number of mice that died on each day after infection: day 5 ([2]; 0.2 mg/kg gavage): 2 Mouse; Number of mice that died on each day after infection: day 6 ([2]; 0.2 mg/kg gavage): 1 Mouse; Number of mice that died on each day after infection: day 7 ([2]; 0.2 mg/kg gavage): 1 Mouse; Number of mice that died on each day after infection: day 8 ([2]; 0.2 mg/kg gavage): 1 Mouse; Average survival times (Days) ([2]; 0.2 mg/kg gavage): 9.1** Days; Number of mice that died on each day after infection: day 4 ([2]; 5 mg/kg gavage): 0 Mouse; Number of mice that died on each day after infection: day 5 ([2]; 5 mg/kg gavage): 3 Mouse; Number of mice that died on each day after infection: day 6 ([2]; 5 mg/kg gavage): 1 Mouse; Number of mice that died on each day after infection: day 7 ([2]; 5 mg/kg gavage): 0 Mouse; Number of mice that died on each day after infection: day 8 ([2]; 5 mg/kg gavage): 0 Mouse; Average survival times (Days) ([2]; 5 mg/kg gavage): 10.5*** Days; survival time of mice infected with Escherichia coli [2]: superior to those of the Levofloxacin group
CC(=O)N[C@H](CCCNC(=N)N)C(=O)N[C@H](CCCCN)C(=O)N[C@H](CC(C)C)C(=O)N[C@H](CC(C)C)C(=O)N[C@H](Cc1ccccc1)C(=O)N[C@H](CCCNC(=N)N)C(=O)N[C@H](CC(C)C)C(=O)N[C@H](CCCCN)C(=O)N[C@H](Cc1ccc2ccccc2c1)C(=O)N[C@H](CCCNC(=N)N)C(=O)N[C@H](CCCCN)C(N)=O [LV-3] (Ac-[dR][dK][dL][dL][dF][dR][dL][dK][d2Nal][dR][dK]-NH2),–,–,–,–,–,–,1,1,0,2,1,8.6** Days,–,1,0,1,2,1,10.2*** Days,>1000,–
CC(=O)N[C@H](CCCNC(=N)N)C(=O)N[C@H](CCCCN)C(=O)N[C@H](CC(C)C)C(=O)N[C@H](CC(C)C)C(=O)N[C@H](Cc1ccc2ccccc2c1)C(=O)N[C@H](CCCNC(=N)N)C(=O)N[C@H](CC(C)C)C(=O)N[C@H](CCCCN)C(=O)N[C@H](Cc1ccccc1)C(=O)N[C@H](CCCNC(=N)N)C(=O)N[C@H](CCCCN)C(N)=O [LV-4] (Ac-[dR][dK][dL][dL][d2Nal][dR][dL][dK][dF][dR][dK]-NH2),–,–,–,–,–,–,0,1,0,2,1,9.9**** Days,–,0,1,2,2,1,9.5** Days,>1000,–
